From US6749864B2, “Stabilized pharmaceutical composition” (Takeda Chemical Industries, Ltd., priority 1986, dated 2004)

Key:
[1] = Storage of granules of different benzimidazole compounds with heavy magnesium carbonate or lactose, changes in appearance (Experimental Example 2); type: physicochemical; design: key to Changes in appearance after 1 week at 50° C. and 75% RH: −: No changes; ++: Severely; settings: for Changes in appearance after 1 week at 50° C. and 75% RH: granules as in Example 5; for stability of the pharmaceutical compositions of the invention: granules with heavy magnesium carbonate, 50° C. and 75% RH, 1 week
Source text: Granules were produced in the same manner as in Example 5 except that the compound (A), the compound (C), the compound (D), omeprazole or timoprazole was used instead of the compound (B). […] As a control to each composition, granules were also produced in the same manner except that lactose was used instead of heavy magnesium carbonate and stored under the same conditions.

[2] = Control: lactose instead of heavy magnesium carbonate
[3] = Invention: additive heavy magnesium carbonate

| melting point | Changes in appearance after 1 week at 50° C. and 75% RH [1, 2] | Changes in appearance after 1 week at 50° C. and 75% RH [1, 3] | stability of the pharmaceutical compositions of the invention [1] | Structure (SMILES) |
| --- | --- | --- | --- | --- |
| 161 to 163 °C (dec.) | ++ | − | stable | Cc1c(OCC(F)(F)C(F)(F)F)ccnc1C[S+]([O-])c1nc2ccccc2[nH]1 (stereo not shown) [Compound (A), 2-[[3-methyl-4-(2,2,3,3,3-pentafluoropropoxy)-2-pyridyl]methyl-sulfinyl]benzimidazole] |
|  | ++ | − | stable | COc1ccc2nc([S+]([O-])Cc3ncc(C)c(OC)c3C)[nH]c2c1 (stereo not shown) [Omeprazole, 5-Methoxy-2-[(4-methoxy-3,5-dimethyl-2-pyridyl)methylsulfinyl]benzimidazole] |
|  | ++ | − | stable | [O-][S+](Cc1ccccn1)c1nc2ccccc2[nH]1 (stereo not shown) [Timoprazole, 2-[(2-Pyridyl)methylsulfinyl]benzimidazole] |
